Experimental data as given in BindingDB's records for patent US20240166639 (Leukos Biotech, 2024).

Columns and labels:
[1] = target: 5-hydroxytryptamine receptor 2A (Homo sapiens, UniProt P28223); assay: Competition Binding in Human 5-HT2A Receptor
Protocol: Serotonin 5-HT2A receptor competition binding experiments were carried out in a polypropilene 96-well plate. In each well was incubated 80 μg of membranes from CHO-5-HT2A cell line prepared in the laboratory (protein concentration=4337 μg/ml), 1 nM [3H]-Ketanserin (47.3 Ci/mmol, 1 mCi/ml, Perkin Elmer NET791250UC) and compounds studied and standard. Non-specific binding was determined in the presence of Methysergide 1 μM (Sigma M137). The reaction mixture (Vt: 250 μl/well) was incubated at 37° C. for 30 min, 200 μL was transfered to GF/B 96-well plate (Millipore, Madrid, Spain) pretreated with 0.5% of PEI and treated with binding buffer (Tris-HCl 50 mM, pH=7.4), after was filtered and washed six times with 250 μl wash buffer (Tris-HCl 50 mM, pH=6.6), before measuring in a microplate beta scintillation counter (Microbeta Trilux, PerkinElmer, Madrid, Spain).

[2] = target: 5-hydroxytryptamine receptor 1B (Homo sapiens, UniProt P28222); assay: Binding at Human Serotonin Receptors Competition Binding in Human 5-HT1B Receptor Assay
Protocol: Serotonin 5-HT1B receptor competition binding experiments were carried out in a polypropylene 96-well plate. […] The reaction mixture (Vt: 250 μl/well) was incubated at 25° C. for 90 min, 200 μL was transfered to GF/C 96-well plate (Millipore, Madrid, Spain) pretreated with 0.5% of PEI and treated with binding buffer (Tris-HCl 50 mM, EDTA 1 mM, MgCl2 10 mM, pH=7.4), after was filtered and washed four times with 250 μl wash buffer (Tris-HCl 50 mM, pH=7.4), before measuring in a microplate beta scintillation counter (Microbeta Trilux, PerkinElmer, Madrid, Spain).

Chain of 5-hydroxytryptamine receptor 2A (P28223 whole entry): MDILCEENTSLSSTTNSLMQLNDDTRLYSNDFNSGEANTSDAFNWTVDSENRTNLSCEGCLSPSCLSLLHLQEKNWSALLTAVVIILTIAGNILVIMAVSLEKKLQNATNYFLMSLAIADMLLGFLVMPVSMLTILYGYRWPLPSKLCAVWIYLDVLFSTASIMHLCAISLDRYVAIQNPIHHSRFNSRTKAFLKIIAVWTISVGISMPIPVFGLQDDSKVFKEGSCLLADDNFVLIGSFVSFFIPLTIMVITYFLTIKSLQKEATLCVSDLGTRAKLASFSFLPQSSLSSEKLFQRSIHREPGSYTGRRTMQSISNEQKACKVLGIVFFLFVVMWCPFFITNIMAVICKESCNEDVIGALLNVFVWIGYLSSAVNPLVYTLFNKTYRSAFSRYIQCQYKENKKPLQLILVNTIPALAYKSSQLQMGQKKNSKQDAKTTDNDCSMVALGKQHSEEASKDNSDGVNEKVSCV
Chain of 5-hydroxytryptamine receptor 1B (P28222 whole entry): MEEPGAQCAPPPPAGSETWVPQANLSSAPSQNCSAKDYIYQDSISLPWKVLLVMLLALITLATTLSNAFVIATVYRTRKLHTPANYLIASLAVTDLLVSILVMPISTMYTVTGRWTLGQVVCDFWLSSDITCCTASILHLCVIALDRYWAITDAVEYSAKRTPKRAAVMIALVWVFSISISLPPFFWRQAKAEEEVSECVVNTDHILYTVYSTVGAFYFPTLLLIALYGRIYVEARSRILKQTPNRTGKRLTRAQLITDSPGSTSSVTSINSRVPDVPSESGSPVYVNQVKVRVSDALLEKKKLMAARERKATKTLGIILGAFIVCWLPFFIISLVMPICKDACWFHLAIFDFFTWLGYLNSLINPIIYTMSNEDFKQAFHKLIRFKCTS

Cc1nc(-c2ccc(-c3ccc(C(=O)Nc4cc(OCCN(C)C)c(Br)cn4)cn3)c(C3CC3)c2)no1 [US20240166639, Example 39]
Ki [1]: 2.5 µM | Ki [2]: 0.0004 µM
